Here are results for 27 molecules from US10633350B2, “Diphenyl derivatives and uses thereof” (NOVARTIS AG, priority 2017, dated 2020).

One may read the AC50 as the concentration at which the activity in the assay is half-maximal.

One experiment deals with Akt. In words: Akt activation assay (Phospho-AKT (Ser473) antibody staining) in U2OS GFP-FoxO3a H212R reporter cells. It counts as cell-based. The settings on record: Homo sapiens, 0.5 h, serum starved overnight, 30 minutes compound treatment, total cellular intensity of Phospho-Akt (Ser473) antibody staining, AC50 = concentration that results in 50% activation or inhibition. The method, then: (§1) Phosphorylation of Akt on S473 and FoxO3a nuclear to cytoplasmic translocation were used as readouts of PI3K/Akt/mTOR pathway activation downstream of growth factor signaling.
(§2) Reporter cell line. U2OS GFP-FoxO3a H212R reporter cell line was established by transducing U2OS cells with the retroviral plasmid pLEGFP-C1 containing FoxO3a H212R transgene and selecting for G418 resistant clones.
(§3) Reporter assay. U2OS GFP-FoxO3a H212R cells were plated in 384-well plates at 4000 cells per well in 30 microliters of McCoy's 5A medium containing 10% FBS. On day 1 the cells were washed with serum free medium and serum starved overnight. On day 2 the cells were treated with different doses of the compounds for 30 minutes, fixed with 4% Paraformaldehyde for 1 hour and stained with Phospho-AKT (Ser473) antibody (Cell Signaling Technology, catalog #4060) overnight at 4° C. After nuclei staining with Hoechst 33342 (Life Technologies, catalog # H3570) the plates were imaged with InCell 2000 (GE Healthcare Bio-Sciences). FoxO3a inhibition activity is calculated as the ratio of nuclear to cytosolic GFP intensity in percent. Akt activation is measured as the total cellular intensity of Phospho-Akt antibody staining in percent. DMSO control is set as 0% activity.

Another experiment relates to FoxO3a. Description: FoxO3a inhibition assay (GFP-FoxO3a nuclear to cytoplasmic translocation) in U2OS GFP-FoxO3a H212R reporter cells. The settings on record: Homo sapiens, 0.5 h, serum starved overnight, 30 minutes compound treatment, ratio of nuclear to cytosolic GFP intensity, AC50 = concentration that results in 50% activation or inhibition, read-out: FoxO AC50. Type of experiment: cell-based. The method, then:
as §1, §2, §3

`Cc1cc(C(N)=O)nn1-c1ccc(Cc2ccc(-c3ccncc3)cc2)cc1` [Example 3-5, 5-methyl-1-(4-(4-(pyridin-4-yl)benzyl)phenyl)-1H-pyrazole-3-carboxamide]: the AC50 was determined as 156 nM in the experiment on Akt and 61 nM with FoxO3a.

As to `Cc1cc(C(N)=O)nn1-c1ccc(Cc2ccc(-c3ccc(S(C)(=O)=O)cc3)cc2)cc1` [Example 3-6, 5-methyl-1-(4-((4′-(methylsulfonyl)-[1,1′-biphenyl]-4-yl)methyl)phenyl)-1H-pyrazole-3-carboxamide], the values for the AC50 in the experiment on Akt and with FoxO3a were 66 nM and 28 nM, respectively.

Consider `Cc1cc(C(N)=O)nn1-c1ccc(Cc2ccc(-c3ccccc3)cc2)cc1` [Example 3-8, 1-(4-([1,1′-biphenyl]-4-ylmethyl)phenyl)-5-methyl-1H-pyrazole-3-carboxamide], for which the half-maximal activity concentration (AC50) came out at 960 nM in the experiment with Akt and 383 nM in the experiment on FoxO3a.

Take `Cc1nnc(-c2ccc(-c3ccc(Cc4ccc(-n5nc(C(N)=O)cc5C)cc4)cc3)cc2)o1` [Example 3-9, 5-methyl-1-(4-((4′-(5-methyl-1,3,4-oxadiazol-2-yl)-[1,1′-biphenyl]-4-yl)methyl)phenyl)-1H-pyrazole-3-carboxamide]: the AC50 in the experiment with Akt was determined as 63 nM; in the experiment on FoxO3a, 29 nM.

As for `Cc1cc(C(N)=O)nn1-c1ccc(Cc2ccc(-c3cccnc3)cc2)cc1` [Example 3-10, 5-methyl-1-(4-(4-(pyridin-3-yl)benzyl)phenyl)-1H-pyrazole-3-carboxamide], the half-maximal activity concentration (AC50) in the experiment on Akt came out at 497 nM; in the experiment with FoxO3a, 110 nM.

For `Cc1cc(C(N)=O)nn1-c1ccc(Cc2ccc(C3=CCN(C(=O)CN(C)C)CC3)cc2)cc1` [Example 3-11, 1-(4-(4-(1-(dimethylglycyl)-1,2,3,6-tetrahydropyridin-4-yl)benzyl)phenyl)-5-methyl-1H-pyrazole-3-carboxamide], the AC50 with Akt came to 504 nM; in the experiment with FoxO3a, 132 nM.

For the molecule `Cc1cc(C(N)=O)nn1-c1ccc(Cc2ccc(-c3ccc(CN4CCN(C)CC4)cc3)cc2)cc1` [Example 3-12, 5-methyl-1-(4-((4′-((4-methylpiperazin-1-yl)methyl)-[1,1′-biphenyl]-4-yl)methyl)phenyl)-1H-pyrazole-3-carboxamide], the AC50 in the experiment with Akt was determined as 122 nM; in the experiment on FoxO3a it was 36 nM.

Take `Cc1cc(C(N)=O)nn1-c1ccc(Cc2ccc(-c3ccc4c(c3)CN(C)C4)cc2)cc1` [Example 3-13, 5-methyl-1-(4-(4-(2-methylisoindolin-5-yl)benzyl)phenyl)-1H-pyrazole-3-carboxamide]: the values for the concentration at half-maximal activity (AC50) in the experiment on Akt and with FoxO3a were 167 nM and 57 nM, respectively.

`Cc1cc(C(N)=O)nn1-c1ccc(Cc2ccc(-c3ccc4c(c3)CCNC4)cc2)cc1` [Example 3-14, 5-methyl-1-(4-(4-(1,2,3,4-tetrahydroisoquinolin-6-yl)benzyl)phenyl)-1H-pyrazole-3-carboxamide]: the AC50 in the experiment with Akt stood at 161 nM; with FoxO3a, 53 nM.

As for `Cc1cc(C(N)=O)nn1-c1ccc(Cc2ccc(C3=CCN(C)CC3)cc2)cc1` [Example 3-15, 5-methyl-1-(4-(4-(1-methyl-1,2,3,6-tetrahydropyridin-4-yl)benzyl)phenyl)-1H-pyrazole-3-carboxamide], the AC50 was 83 nM in the experiment with Akt and 31 nM in the experiment with FoxO3a.

In the case of `Cc1cc(C(N)=O)nn1-c1ccc(Cc2ccc(C3CCN(C)CC3)cc2)cc1` [Example 4, 5-methyl-1-(4-(4-(1-methylpiperidin-4-yl)benzyl)phenyl)-1H-pyrazole-3-carboxamide], the AC50 with Akt is 1220 nM; in the experiment on FoxO3a it was 325 nM.

Consider `Cc1cc(C(N)=O)nn1-c1ccc(Cc2ccc(-c3ccc(CN(C)C)nc3)cc2)cc1` [Example 5-3, 1-(4-(4-(6-((dimethylamino)methyl)pyridin-3-yl)benzyl)phenyl)-5-methyl-1H-pyrazole-3-carboxamide], for which the AC50 in the experiment with Akt turned out to be 425 nM; in the experiment on FoxO3a, 136 nM.

Consider `Cc1cc(C(N)=O)nn1-c1ccc(Cc2ccc(-c3ccnc(CN(C)C)c3)cc2)cc1` [Example 5-4, 1-(4-(4-(2-((dimethylamino)methyl)pyridin-4-yl)benzyl)phenyl)-5-methyl-1H-pyrazole-3-carboxamide], for which the AC50 was 789 nM with Akt and 160 nM with FoxO3a.

As to `Cc1cc(C(N)=O)nn1-c1ccc(Cc2ccc(-c3ccc(CN4CCCC4)nc3)cc2)cc1` [Example 5-5, 5-methyl-1-(4-(4-(6-(pyrrolidin-1-ylmethyl)pyridin-3-yl)benzyl)phenyl)-1H-pyrazole-3-carboxamide], the AC50 with Akt amounted to 426 nM; in the experiment with FoxO3a, 152 nM.

`Cc1cc(C(N)=O)nn1-c1ccc(Cc2ccc(-c3cncc(CN(C)C)c3)cc2)cc1` [Example 5-6, 1-(4-(4-(5-((dimethylamino)methyl)pyridin-3-yl)benzyl)phenyl)-5-methyl-1H-pyrazole-3-carboxamide]: the half-maximal activity concentration (AC50) is 1040 nM with Akt and 312 nM in the experiment on FoxO3a.

Turning to `Cc1cc(C(N)=O)nn1-c1ccc(Cc2ccc(C3=CCCN(C)CC3)cc2)cc1` [Example 5-7, 5-methyl-1-(4-(4-(1-methyl-2,3,6,7-tetrahydro-1H-azepin-4-yl)benzyl)phenyl)-1H-pyrazole-3-carboxamide], the AC50 in the experiment on Akt is 1370 nM; in the experiment on FoxO3a it was 412 nM.

On to `Cc1cc(C(N)=O)nn1-c1ccc(Cc2ccc(-c3ccc([C@@H]4CCCN4C)cc3)cc2)cc1` [Example 5-8, (S)-5-methyl-1-(4-((4′-(1-methylpyrrolidin-2-yl)-[1,1′-biphenyl]-4-yl)methyl)phenyl)-1H-pyrazole-3-carboxamide], for which the AC50 in the experiment on Akt worked out at 145 nM; in the experiment with FoxO3a it was 76 nM.

Regarding `Cc1cc(C(N)=O)nn1-c1ccc(C(C)(C)c2ccc(-c3ccc(CN4CCCC4)cc3)cc2)cc1` [Example 6-1, 5-methyl-1-(4-(2-(4′-(pyrrolidin-1-ylmethyl)-[1,1′-biphenyl]-4-yl)propan-2-yl)phenyl)-1H-pyrazole-3-carboxamide], the AC50 was determined as 292 nM in the experiment on Akt and 115 nM in the experiment with FoxO3a.

As for `Cc1cc(C(N)=O)nn1-c1ccc(C(C)(C)c2ccc(-c3cccc(S(C)(=O)=O)c3)cc2)cc1` [Example 6-2, 5-methyl-1-(4-(2-(3′-(methylsulfonyl)-[1,1′-biphenyl]-4-yl)propan-2-yl)phenyl)-1H-pyrazole-3-carboxamide], the AC50 is 1810 nM in the experiment with Akt and 480 nM with FoxO3a.

`Cc1cc(C(N)=O)nn1-c1ccc(C(C)(C)c2ccc(-c3ccncc3)cc2)cc1` [Example 6-3, 5-methyl-1-(4-(2-(4-(pyridin-4-yl)phenyl)propan-2-yl)phenyl)-1H-pyrazole-3-carboxamide]: the figures for the half-maximal activity concentration (AC50) in the experiment on Akt and in the experiment with FoxO3a were 432 nM and 149 nM, respectively.

`Cc1cc(C(N)=O)nn1-c1ccc(C(C)(C)c2ccc(-c3ccc4[nH]ncc4c3)cc2)cc1` [Example 6-4, 1-(4-(2-(4-(1H-indazol-5-yl)phenyl)propan-2-yl)phenyl)-5-methyl-1H-pyrazole-3-carboxamide]: the values for the AC50 in the experiment on Akt and in the experiment on FoxO3a were 1040 nM and 517 nM, respectively.

Take `Cc1cc(C(N)=O)nn1-c1ccc(C(C)(C)c2ccc(-c3ccnc(N)c3)cc2)cc1` [Example 6-5, 1-(4-(2-(4-(2-aminopyridin-4-yl)phenyl)propan-2-yl)phenyl)-5-methyl-1H-pyrazole-3-carboxamide]: the AC50 was 415 nM in the experiment with Akt and 134 nM in the experiment with FoxO3a.

For `Cc1nnc(-c2ccc(-c3ccc(C(C)(C)c4ccc(-n5nc(C(N)=O)cc5C)cc4)cc3)cc2)o1` [Example 6-6, 5-methyl-1-(4-(2-(4′-(5-methyl-1,3,4-oxadiazol-2-yl)-[1,1′-biphenyl]-4-yl)propan-2-yl)phenyl)-1H-pyrazole-3-carboxamide], the results for the AC50 in the experiment with Akt and in the experiment with FoxO3a were 842 nM and 283 nM, respectively.

In the case of `Cc1cc(C(N)=O)nn1-c1ccc(C(C)(C)c2ccc(C3=CCC(=O)CC3)cc2)cc1` [Example 7, 5-methyl-1-(4-(2-(4′-oxo-2′,3′,4′,5′-tetrahydro-[1,1′-biphenyl]-4-yl)propan-2-yl)phenyl)-1H-pyrazole-3-carboxamide], the values for the AC50 with Akt and with FoxO3a were 276 nM and 58 nM, respectively.

Regarding `Cc1cc(C(N)=O)nn1-c1ccc(C(C)(C)c2ccc(C3=CCC(N4CCOCC4)CC3)cc2)cc1` (stereo not drawn) [Example 8, 5-methyl-1-(4-(2-(4′-morpholino-2′,3′,4′,5′-tetrahydro-[1,1′-biphenyl]-4-yl)propan-2-yl)phenyl)-1H-pyrazole-3-carboxamide], the figures for the AC50 with Akt and in the experiment on FoxO3a were 377 nM and 96 nM, respectively.

Take `Cc1cc(C(N)=O)nn1-c1ccc(C(C)(C)c2ccc(C3=CCC(O)CC3)cc2)cc1` (stereo not drawn) [Example 9, 1-(4-(2-(4′-hydroxy-2′,3′,4′,5′-tetrahydro-[1,1′-biphenyl]-4-yl)propan-2-yl)phenyl)-5-methyl-1H-pyrazole-3-carboxamide]: the concentration at half-maximal activity (AC50) was 532 nM in the experiment on Akt and 253 nM with FoxO3a.

Take `Cc1cc(C(N)=O)nn1-c1ccc(C(C)(C)c2ccc(-c3ccccn3)cc2)cc1` [Example 10, 5-methyl-1-(4-(2-(4-(pyridin-2-yl)phenyl)propan-2-yl)phenyl)-1H-pyrazole-3-carboxamide]: the AC50 in the experiment with Akt is 733 nM; in the experiment with FoxO3a, 470 nM.
